Patent publication US8975235B2, “Lysophosphatidic acid receptor antagonists” (InterMune, Inc., priority 2011, dated 2015)

Biological target: Human LPA1 (Homo sapiens, UniProt Q92633)
Experiment: Beta-Arrestin based assay for human LPA1R antagonists (PathHunter)
Type: cell-based
Parameters: host or cells: CHO
Details: CHO cells stably expressing ProLink tagged human LPA1R; agonist LPA 0.5 micromolar
Procedure: Beta-Arrestin Based Assays for Human LPA1R Antagonists and Agonists
A CHO cell line stably expressing the ProLink™ tagged human LPA1R was obtained from DiscoverX Inc, Fremont, Calif. In this system, β-Arrestin was fused to an N-terminal deletion mutant of β-galactosidase (termed the enzyme acceptor or EA), the human LPA1R was fused to a smaller (42 amino acids) weakly complementing fragment termed ProLink™. […] Cell handling and assays were performed according to protocols specified in the PathHunter® assays kits (DiscoverX, Fremont, Calif.). Assays were performed in quadruplicate in white 384 well plates. End point luminescence data were plotted and fit to a 4 parameter logistic function to obtain IC50 values. For antagonist assays, an […] concentration of agonist (LPA) equal to 0.5 micromolar was used.

Sequence of Human LPA1 (Q92633 whole entry): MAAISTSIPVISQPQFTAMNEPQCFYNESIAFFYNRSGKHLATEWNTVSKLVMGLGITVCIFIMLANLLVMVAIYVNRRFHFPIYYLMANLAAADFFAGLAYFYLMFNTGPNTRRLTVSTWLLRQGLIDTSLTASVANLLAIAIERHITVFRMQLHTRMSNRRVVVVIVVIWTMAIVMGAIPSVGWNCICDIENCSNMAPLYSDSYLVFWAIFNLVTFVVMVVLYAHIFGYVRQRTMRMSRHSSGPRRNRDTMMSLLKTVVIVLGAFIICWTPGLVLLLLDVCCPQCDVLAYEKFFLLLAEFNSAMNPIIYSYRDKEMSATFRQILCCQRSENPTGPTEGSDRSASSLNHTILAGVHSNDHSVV

Row | Structure (SMILES) | EC50 [nM]
1 | O=C(O)Cc1ccc(N2CCN(C(=O)[C@@H](Cc3ccccc3)NC(=O)OCc3ccccc3)CC2)cc1 [Compound 266] | > 500
2 | Cc1nsc(-c2ccc(-c3ccc(CC(=O)O)c(Cl)c3)cc2)c1NC(=O)O[C@H](C)c1ccccc1Cl [Compound 192] | 50 to 500
3 | Cc1noc(-c2ccc3cc(C#CC4(C(=O)O)CC4)ccc3c2)c1NC(=O)OCc1ccccc1 [Compound 142] | < 50
4 | Cc1noc(C#Cc2ccc3cc(C4(C(=O)O)CC4)ccc3c2)c1NC(=O)O[C@H](C)c1ccccc1 [Compound 130] | < 50
5 | CN(CC(=O)N1CCC(c2ccc(CC(=O)O)cc2)CC1)C(=O)OCc1ccccc1 [Compound 258] | > 500
6 | Cc1noc(-c2ccc(-c3ccc(CC(=O)O)cc3)cc2)c1NS(=O)(=O)Cc1ccccc1 [Compound 17] | > 500
7 | Cc1nsc(-c2ccc(-c3ccc(C4(C(=O)O)CC4)cc3)cc2)c1NC(=O)OCc1cccc(F)c1 [Compound 96] | < 50
8 | C[C@@H](OC(=O)Nc1c(-c2ccc(-c3ccc(C4(C(=O)O)CC4)cc3)cc2)ncn1C)c1ccccc1 [Compound 169] | 50 to 500
9 | Cc1noc(C#Cc2ccc3cc(C4(C(=O)O)CC4)ccc3c2)c1NC(=O)O[C@H](C)c1ccccc1Cl [Compound 131] | < 50
10 | Cc1nc(-c2ccc(-c3ccc(C4(C(=O)O)CC4)cc3)cc2)c(NC(=O)OCc2ccccc2)o1 [Compound 156] | > 500
11 | Cc1noc(-c2ccc3c(c2)CCc2cc(C4(C(=O)O)CC4)ccc2-3)c1NC(=O)O[C@H](C)c1ccccc1Cl [Compound 248] | < 50
12 | Cc1nsc(-c2ccc3cc(C#CC4(C(=O)O)CC4)ccc3c2)c1NC(=O)O[C@H](C)c1ccccc1 [Compound 88] | 50 to 500
13 | C[C@@H](OC(=O)Nc1oncc1-c1ccc(-c2ccc(C3(C(=O)O)CC3)cc2)cc1)c1ccccc1 [Compound 206] | < 50
14 | Cc1ccc2c(NC(=O)O[C@H](C)c3ccccc3)c(-c3ccc(-c4ccc(C5(C(=O)O)CC5)cc4)cc3)sc2n1 [Compound 214] | > 500
15 | Cc1nsc(-c2ccc(-c3ccc(CC(=O)O)cc3F)cc2)c1NC(=O)O[C@H](C)c1ccccc1Cl [Compound 195] | 50 to 500
16 | O=C(Nc1c(-c2ccc(-c3ccc(C4(C(=O)O)CC4)cc3)cc2)oc2cnccc12)OCc1ccccc1 [Compound 151] | 50 to 500
17 | C[C@@H](OC(=O)Nc1nnn(C)c1-c1ccc(-c2ccc(C3(C(=O)O)CC3)cc2)cc1)c1ccccc1 [Compound 226] | > 500
18 | Cc1ccc2oc(-c3ccc(-c4ccc(C5(C(=O)O)CC5)cc4)cc3)c(NC(=O)O[C@H](C)c3ccccc3Cl)c2c1 [Compound 53] | > 500
19 | C[C@H](NC(=O)OCc1ccccc1)C(=O)N1CCN(c2ccc(CC(=O)O)cc2)CC1 [Compound 267] | > 500

Row | Structure (SMILES) | EC50 [nM]
20 | Cc1noc(-c2ccc(-c3ccc(C4(C(=O)O)CNC4)cc3)cc2)c1NC(=O)O[C@H](C)c1ccccc1Cl [Compound 34] | > 500
21 | C[C@@H](OC(=O)Nc1cncn1-c1ccc(-c2ccc(C3(C(=O)O)CC3)cc2)cc1)c1ccccc1Cl [Compound 164] | 50 to 500
22 | C[C@@H](OC(=O)Nc1cnnn1-c1ccc(-c2ccc(C3(C(=O)O)CC3)cc2)cc1)c1ccccc1 [Compound 66] | 50 to 500
23 | Cc1nsc(-c2ccc(-c3ccc(C4(C(=O)O)CC4)cn3)cc2)c1NC(=O)O[C@H](C)c1ccccc1Cl [Compound 252] | 50 to 500
24 | O=C(Nc1ncoc1-c1ccc(-c2ccc(C3(C(=O)O)CC3)cc2)cc1)OCc1ccccc1 [Compound 145] | 50 to 500
25 | O=C(Nc1nncn1-c1ccc(-c2ccc(C3(C(=O)O)CC3)cc2)cc1)OCc1ccccc1 [Compound 160] | > 500
26 | Cc1noc(-c2ccc(-c3ccc(N4CC[C@H](C(=O)O)C4)cc3)cc2)c1NC(=O)O[C@H](C)c1ccccc1 [Compound 132] | 50 to 500
27 | Cc1nc(-c2ccc(-c3ccc(C4(C(=O)O)CC4)cc3)cc2)c(NC(=O)O[C@H](C)c2ccccc2)o1 [Compound 154] | 50 to 500
28 | C[C@@H](OC(=O)Nc1cnsc1-c1ccc(-c2ccc(C3(C(=O)O)CC3)cc2)cc1)c1ccccc1Cl [Compound 210] | 50 to 500
29 | C[C@@H](OC(=O)Nc1cncn1-c1ccc(-c2ccc(C3(C(=O)O)CC3)cc2)cc1)c1ccccc1 [Compound 165] | 50 to 500
30 | Cc1nsc(-c2c(F)cc(-c3ccc(C4(C(=O)O)CC4)cc3)cc2F)c1NC(=O)O[C@H](C)c1ccccc1 [Compound 183] | 50 to 500
31 | Cc1nsc(-c2ccc(-c3ccc(C4(C(=O)O)CC4)cc3)cc2F)c1NC(=O)O[C@H](C)c1ccccc1 [Compound 184] | < 50
32 | Cc1nc(-c2ccc(-c3ccc(C4(C(=O)O)CC4)cc3)cc2)c(NC(=O)O[C@H](C)c2ccccc2Cl)o1 [Compound 155] | 50 to 500
33 | C[C@@H](NC(=O)OCc1ccccc1)C(=O)N1CCN(c2ccc(CC(=O)O)cc2)CC1 [Compound 273] | > 500
34 | Cc1nsc(-c2ccc(-c3ccc(C4(C(=O)O)CC4)cc3)cc2)c1NC(=O)OC1(c2ccccc2)CC1 [Compound 244] | > 500
35 | O=C(O)Cc1ccc(N2CCN(C(=O)[C@@H](NC(=O)OCc3ccccc3)c3ccccc3)CC2)cc1 [Compound 268] | > 500
36 | Cc1nsc(-c2ccc(-c3ccc(CC(=O)O)cc3Cl)cc2)c1NC(=O)O[C@H](C)c1ccccc1Cl [Compound 190] | 50 to 500
37 | Cc1noc(-c2ccc(-c3ccc(N4CCC[C@H](C(=O)O)C4)cc3)cc2)c1NC(=O)O[C@H](C)c1ccccc1 [Compound 137] | 50 to 500
38 | Cc1noc(-c2ccc(-c3ccc(C(C(=O)O)c4ccccc4)cc3)cc2)c1NC(=O)O[C@H](C)c1ccccc1Cl (single isomer, unassigned) [Compound 16] | < 50

Row | Structure (SMILES) | EC50 [nM]
39 | C[C@@H](OC(=O)Nc1ncoc1-c1ccc(-c2ccc(C3(C(=O)O)CC3)cc2)cc1)c1ccccc1Cl [Compound 144] | < 50
40 | CC(=O)Nc1ccnc(-c2ccc(-c3ccc(CC(=O)O)cc3)cc2)c1 [reference compound] | > 500
41 | Cc1nsc(-c2ccc(-c3ccc(C4(C(=O)O)CC4)cc3)c(Cl)c2)c1NC(=O)O[C@H](C)c1ccccc1Cl [Compound 186] | < 50
42 | CC(C)NC(=O)Nc1ccnc(-c2ccc(-c3ccc(CC(=O)O)cc3)cc2)c1 [reference compound] | > 500
43 | CCCCC(=O)NCC(=O)c1ccc(-c2ccc(CC(=O)O)cc2)cc1 [reference compound] | > 500
44 | Cc1nsc(-c2ccc(-c3ccc(C4(C(=O)O)CC4)cc3)cc2)c1NC(=O)O[C@@H](C)c1ccccc1 [Compound 236] | > 500
45 | Cc1nsc(C#Cc2ccc3cc(CC(=O)O)ccc3c2)c1NC(=O)OCc1ccccc1 [Compound 91] | > 500
46 | Cc1noc(-c2ccc(-c3ccc(N4CC[C@@H](C(=O)O)C4)cc3)cc2)c1NC(=O)O[C@H](C)c1ccccc1 [Compound 133] | > 500
47 | CCn1ncc(-c2ccc(-c3ccc(C4(C(=O)O)CC4)cc3)cc2)c1NC(=O)O[C@H](C)c1ccccc1 [Compound 221] | < 50
48 | Cc1noc(-c2ccc(-c3ccc(N4CCC[C@H](C(=O)O)C4)cc3)cc2)c1NC(=O)O[C@H](C)c1ccccc1Cl [Compound 139] | 50 to 500
49 | CC(C)NC(=O)Nc1ncncc1-c1ccc(-c2ccc(CC(=O)O)cc2)cc1 [reference compound] | > 500
50 | Cc1cc(-c2snc(C)c2NC(=O)O[C@H](C)c2ccccc2Cl)c(Cl)cc1-c1ccc(C2(C(=O)O)CC2)cc1 [Compound 122] | < 50
51 | Cc1nsc(-c2cc(Cl)c(-c3ccc(C4(C(=O)O)CC4)cc3)cc2F)c1NC(=O)O[C@H](C)c1ccccc1Cl [Compound 120] | < 50
52 | Cc1nsc(-c2ccc(-c3ccc(C4(C(=O)O)CC4)cc3)cc2)c1NC(=O)O[C@@H](C)C1=C(Cl)CCC1 (single isomer, unassigned) [Compound 217] | > 500
53 | C[C@@H](OC(=O)Nc1nncn1-c1ccc(-c2ccc(C3(C(=O)O)CC3)cc2)cc1)c1ccccc1 [Compound 158] | > 500
54 | C[C@@H](OC(=O)Nc1cnsc1-c1ccc(-c2ccc(C3(C(=O)O)CC3)cc2)cc1)c1ccccc1 [Compound 114] | < 50
55 | Cc1noc(-c2ccc(-c3ccc(C4(C(=O)O)CN(Cc5ccccc5)C4)cc3)cc2)c1NC(=O)O[C@H](C)c1ccccc1Cl [Compound 33] | < 50
56 | Cc1nsc(-c2ccc(-c3ccc(C4(C(=O)O)CC4)cc3)cc2)c1NC(=O)O[C@H](C)c1ccccn1 [Compound 84] | 50 to 500
